In assay [1] the target is T1, SARS-CoV-2 PLpro (nsp3 1564–1878) (Severe acute respiratory syndrome coronavirus 2, UniProt P0DTD1). Nature of the assay: biochemical. The arrangement: FRET-quenched peptide (Pro3) cleavage by PLpro, 10 min pre-incubation, slope over 20 min, normalised to no-compound control. Conditions: low concentration screen, read-out: % of control remaining.
Assay [2] addresses T1, SARS-CoV-2 PLpro (nsp3 1564–1878). Nature of the assay: biochemical. The arrangement: FRET-quenched peptide (Pro3) cleavage by PLpro, 10 min pre-incubation, slope over 20 min, normalised to no-compound control. Conditions: high concentration screen, read-out: % of control remaining.

This passage reports remaining activity results from article PMC8286840, “Identifying SARS-CoV-2 antiviral compounds by screening for small molecule inhibitors of Nsp3 papain-like protease” (Biochemical Journal, 2021).

Structures can show the parent of a compound that is named as a salt. Where two headings read alike, the source gives them in different places.

`CCCCCC/C=C/CCCCCCCCC(=O)O` [10(E)-Heptadecenoic acid]: the remaining activity at 1.25 µM in assay [1] (Well no.=4312) stood at 104%. In addition, the remaining activity at 3.75 µM in assay [2] (Well no.=4312) amounted to 96.7%.
As to `CCCCCCCC/C=C/CCCCCCCCC(=O)O` [10(E)-Nonadecenoic acid], the remaining activity at 1.25 µM in assay [1] (Well no.=4546) stood at 98.5%. For the same molecule, the remaining activity at 3.75 µM in assay [2] (Well no.=4546) worked out at 102%.
Regarding `CCCC/C=C/CCCCCCCCC(=O)O` [10(E)-Pentadecenoic acid], the remaining activity at 1.25 µM in assay [1] (Well no.=4300) is 97.7%. Also, in assay [2] (Well no.=4300), the remaining activity at 3.75 µM was determined as 89.6%.
Regarding `CCCCC/C=C\C/C=C\CCCCCCCCC(=O)O` [10(Z),13(Z)-Nonadecadienoic acid], in assay [1] (Well no.=4396), the remaining activity at 1.25 µM is 97.8%. The remaining activity at 3.75 µM in assay [2] (Well no.=4396) turned out to be 92.5%.
As for `CCCC/C=C\CCCCCCCCC(=O)O` [10(Z)-Pentadecenoic acid], in assay [1] (Well no.=4542), the remaining activity at 1.25 µM came out at 89.2%. Further, the remaining activity at 3.75 µM in assay [2] (Well no.=4542) was found to be 97.8%.
With `CCN(CC)C(C)C(=O)N1c2ccccc2Sc2ccccc21` (stereo not drawn) [10-(alpha-Diethylaminopropionyl)-phenothiazine hydrochloride], the remaining activity at 1.25 µM in assay [1] (Well no.=531) came out at 104%. Also, in assay [2] (Well no.=531), the remaining activity at 3.75 µM was determined as 99.7%.
As for `C=CCCCCCCCCC(=O)O` [10-Undecenoic acid], in assay [1] (Well no.=4254), the remaining activity at 1.25 µM turned out to be 99%. In assay [2] (Well no.=4254), the remaining activity at 3.75 µM turned out to be 91.9%.
As to `CCC(Sc1nnc2c(n1)[nH]c1ccccc12)C(=O)N1c2ccccc2Sc2ccccc21` (centres unmarked) [10-[2-(5H-[1,2,4]triazino[5,6-b]indol-3-ylsulfanyl)butanoyl]-10H-phenothiazine], in assay [1] (Well no.=5509), the remaining activity at 1.25 µM was 110%. The remaining activity at 3.75 µM in assay [2] (Well no.=5509) was determined as 108%.
In the case of `CCN(CC)CCCCN1c2ccccc2Oc2ccc(Cl)cc21` [10-[4'-(N,N-Diethylamino)butyl]-2-chlorophenoxazine hydrochloride], the remaining activity at 1.25 µM in assay [1] (Well no.=2574) turned out to be 97.3%. Also, the remaining activity at 3.75 µM in assay [2] (Well no.=2574) was determined as 101%.
In the case of `Cc1ccc(S(=O)(=O)N2c3ccccc3Oc3ccccc32)cc1` [10-[(4-methylphenyl)sulfonyl]-10H-phenoxazine], the remaining activity at 1.25 µM in assay [1] (Well no.=6041) came to 96.2%. For the same molecule, in assay [2] (Well no.=6041), the remaining activity at 3.75 µM stood at 96.7%.
For `CCCCCC/C=C/CCCCCCCCCC(=O)O` [11(E)-Octadecenoic acid], the remaining activity at 1.25 µM in assay [1] (Well no.=4350) came out at 106%. The remaining activity at 3.75 µM in assay [2] (Well no.=4350) worked out at 104%.
`CCCCCCCC/C=C\CCCCCCCCCC(=O)O` [11(Z)-Eicosenoic acid]: the remaining activity at 1.25 µM in assay [1] (Well no.=4406) is 96.4%. The remaining activity at 3.75 µM in assay [2] (Well no.=4406) stood at 93.7%.
For the molecule `CCCCCC/C=C\CCCCCCCCCC(=O)O` [11(Z)-Octadecenoic acid], in assay [1] (Well no.=4348), the remaining activity at 1.25 µM came to 102%. Further, the remaining activity at 3.75 µM in assay [2] (Well no.=4348) amounted to 94%.
On to `CCCCC[C@H](O)/C=C/[C@H]1OC(=O)C[C@H](O)[C@@H]1C/C=C\CCCC(=O)O` [11-Dehydro-thromboxane B2], for which the remaining activity at 1.25 µM in assay [1] (Well no.=4288) was 103%. In addition, the remaining activity at 3.75 µM in assay [2] (Well no.=4288) stood at 99.7%.
For the molecule `C=CCCCCCCCCCC(=O)O` [11-Dodecenoic acid], the remaining activity at 1.25 µM in assay [1] (Well no.=4258) amounted to 98.8%. Also, the remaining activity at 3.75 µM in assay [2] (Well no.=4258) was 96.7%.
With `O=C(O)CCC/C=C\C/C=C\C=C\[C@@H](O)C/C=C\CCCCCO` [12(S),20-DIHETE], the remaining activity at 1.25 µM in assay [1] (Well no.=4565) amounted to 99.6%. The remaining activity at 3.75 µM in assay [2] (Well no.=4565) was 101%.
`CCCCC[C@H](O)/C=C/C=C/C/C=C\CCCC(=O)O` [12(S)-HHT]: in assay [1] (Well no.=4234), the remaining activity at 1.25 µM was 101%. In assay [2] (Well no.=4234), the remaining activity at 3.75 µM was 103%.
On to `CCCCC/C=C\C[C@@H](/C=C/C=C\C/C=C\CCCC(=O)O)OO` [12(S)-HPETE], for which the remaining activity at 1.25 µM in assay [1] (Well no.=4329) turned out to be 110%. Further, the remaining activity at 3.75 µM in assay [2] (Well no.=4329) is 103%.
In the case of `CCCCCCCC/C=C\CCCCCCCCCCC(=O)O` [12(Z) Heneicosenoic acid], the remaining activity at 1.25 µM in assay [1] (Well no.=4452) stood at 94%. Moreover, the remaining activity at 3.75 µM in assay [2] (Well no.=4452) came out at 102%.
In the case of `CCCCC/C=C\C/C=C\CCCCCCCCCCC(=O)O` [12(Z), 15(Z)-Heneicosadienoic acid], the remaining activity at 1.25 µM in assay [1] (Well no.=4454) was 95.1%. Also, the remaining activity at 3.75 µM in assay [2] (Well no.=4454) came to 89.9%.
As to `CC(=O)OCC1=C[C@H]2[C@@H]3C(C)(C)[C@]3(OC(=O)Cc3ccccc3)C[C@@H](C)[C@]2(O)[C@@H]2C=C(C)C(=O)[C@@]2(O)C1` [12-Deoxyphorbol 13-phenylacetate 20-acetate], the remaining activity at 1.25 µM in assay [1] (Well no.=3229) amounted to 107%. Moreover, the remaining activity at 3.75 µM in assay [2] (Well no.=3229) was determined as 105%.
As to `COCCCCCCCCCCCC(=O)O` [12-Methoxydodecanoic acid], the remaining activity at 1.25 µM in assay [1] (Well no.=4262) turned out to be 96%; in assay [1] (Well no.=4359), 101%. The remaining activity at 3.75 µM was determined as 94.8% in assay [2] (Well no.=4262) and 97.3% in assay [2] (Well no.=4359).
For `C=CCCCCCCCCCCC(=O)O` [12-Tridecenoic acid], the remaining activity at 1.25 µM in assay [1] (Well no.=4264) turned out to be 91.3%. Also, in assay [2] (Well no.=4264), the remaining activity at 3.75 µM turned out to be 98%.
Turning to `CCCCC[C@@H](/C=C/C=C\CCCCCCCC(=O)O)OO` [13(S)-HPODE], the remaining activity at 1.25 µM in assay [1] (Well no.=4388) was found to be 102%. For the same molecule, in assay [2] (Well no.=4388), the remaining activity at 3.75 µM was found to be 101%.
`CCCCC/C=C\C/C=C\CCCCCCCCCCCC(=O)O` [13(Z),16(Z)-Docosadienoic acid]: the remaining activity at 1.25 µM in assay [1] (Well no.=4462) is 100%. Besides, in assay [2] (Well no.=4462), the remaining activity at 3.75 µM stood at 101%.
For `CCCCC[C@H](O)CC[C@H]1[C@H](O)CC(=O)[C@@H]1CCCCCCC(=O)O` [13,14-Dihydro-prostaglandin E1], the remaining activity at 1.25 µM in assay [1] (Well no.=4278) was determined as 102%. Also, the remaining activity at 3.75 µM in assay [2] (Well no.=4278) stood at 101%.
Take `CC1=C(/C=C/C(C)=C/C=C/C(C)=C\C(=O)O)C(C)(C)CCC1` [13-cis Retinoic acid]: the values for the remaining activity at 1.25 µM in assay [1] (Well no.=3134) and in assay [1] (Well no.=4430) were 98.4% and 95.1%, respectively. Moreover, the figures for the remaining activity at 3.75 µM in assay [2] (Well no.=3134) and in assay [2] (Well no.=4430) were 98.9% and 96%, respectively.
Regarding `CC1=C(/C=C/C(C)=C/C=C/C(C)=C\C(=O)O)C(C)(C)CCC1` [13-cis-retinoic acid], the remaining activity at 1.25 µM in assay [1] (Well no.=1348) was 95.9%. Moreover, in assay [2] (Well no.=1348), the remaining activity at 3.75 µM amounted to 101%.
On to `CCCCCCCC/C=C/CCCCCCCCCCCCC(=O)O` [14(E)-Tricosenoic acid], for which the remaining activity at 1.25 µM in assay [1] (Well no.=4500) was 95.4%. For the same molecule, the remaining activity at 3.75 µM in assay [2] (Well no.=4500) amounted to 94.8%.
Consider `CCCCCCCC/C=C\CCCCCCCCCCCCC(=O)O` [14(Z)-Tricosenoic acid], for which the remaining activity at 1.25 µM in assay [1] (Well no.=4498) was 99.3%. Further, in assay [2] (Well no.=4498), the remaining activity at 3.75 µM came to 93.7%.
`CCCCCC#CC[C@@H](O)/C=C/C=C/C=C\[C@@H](O)CCCC(=O)O` [14,15-Dehydroleukotriene B4]: the remaining activity at 1.25 µM in assay [1] (Well no.=4518) is 97.4%. Further, the remaining activity at 3.75 µM in assay [2] (Well no.=4518) came to 94.4%.
With `CCCCC[C@H](O)/C=C/C=C\C/C=C\C/C=C\CCCC(=O)O` [15(S)-HETE], the remaining activity at 1.25 µM in assay [1] (Well no.=4289) was 102%. Moreover, the remaining activity at 3.75 µM in assay [2] (Well no.=4289) stood at 97.2%.
